Results on one compound are retold here after paper PMC7567334 (Environmental Health Perspectives, 2020).

One series addresses T1, human (h)AR (Homo sapiens, UniProt P10275).
T1 sequence (P10275 1-920): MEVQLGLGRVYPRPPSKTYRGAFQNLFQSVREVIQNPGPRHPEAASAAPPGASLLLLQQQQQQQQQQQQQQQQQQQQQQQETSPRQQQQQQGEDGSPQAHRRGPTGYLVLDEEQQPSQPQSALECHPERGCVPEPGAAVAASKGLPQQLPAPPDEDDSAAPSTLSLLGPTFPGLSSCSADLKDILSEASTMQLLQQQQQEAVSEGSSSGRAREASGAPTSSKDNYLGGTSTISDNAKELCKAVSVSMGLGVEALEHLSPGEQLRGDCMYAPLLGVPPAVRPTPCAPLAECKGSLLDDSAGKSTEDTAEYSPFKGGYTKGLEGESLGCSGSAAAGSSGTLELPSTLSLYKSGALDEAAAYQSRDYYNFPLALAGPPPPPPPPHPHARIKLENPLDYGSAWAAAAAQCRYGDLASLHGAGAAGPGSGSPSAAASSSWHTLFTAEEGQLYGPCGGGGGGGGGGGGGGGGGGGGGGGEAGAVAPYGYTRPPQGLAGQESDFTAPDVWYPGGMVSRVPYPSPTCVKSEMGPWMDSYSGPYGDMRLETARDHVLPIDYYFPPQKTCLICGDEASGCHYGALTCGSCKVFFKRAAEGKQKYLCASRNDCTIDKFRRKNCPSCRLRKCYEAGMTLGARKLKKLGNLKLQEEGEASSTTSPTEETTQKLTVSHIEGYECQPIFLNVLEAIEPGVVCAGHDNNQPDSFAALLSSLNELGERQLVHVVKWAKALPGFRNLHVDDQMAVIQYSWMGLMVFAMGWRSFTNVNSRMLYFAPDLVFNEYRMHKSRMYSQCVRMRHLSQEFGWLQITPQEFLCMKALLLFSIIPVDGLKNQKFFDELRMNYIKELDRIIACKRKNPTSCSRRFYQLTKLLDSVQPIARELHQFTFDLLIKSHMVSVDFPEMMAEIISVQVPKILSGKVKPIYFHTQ
As to the kind of experiment: AR-EcoScreen hAR transcriptional activation assay, agonist setup. Type of series: cell-based.

The subject of series [1] is TRα and TRβ. As to the kind of experiment: GH3.TRE-Luc TR reporter assay, agonist setup. It counts as cell-based, rat. Conditions: 1 μM; vs 0.1% DMSO. For orientation: A reporter such as luciferase makes a cellular process visible.
For series [2], the system named is TRα and TRβ. As to the kind of experiment: GH3.TRE-Luc TR reporter assay, antagonist setup (0.25 nM T3). It counts as cell-based, rat.
The target in another series is T2, human (h) ERα (Homo sapiens, UniProt P03372).
T2 sequence (P03372 1-595): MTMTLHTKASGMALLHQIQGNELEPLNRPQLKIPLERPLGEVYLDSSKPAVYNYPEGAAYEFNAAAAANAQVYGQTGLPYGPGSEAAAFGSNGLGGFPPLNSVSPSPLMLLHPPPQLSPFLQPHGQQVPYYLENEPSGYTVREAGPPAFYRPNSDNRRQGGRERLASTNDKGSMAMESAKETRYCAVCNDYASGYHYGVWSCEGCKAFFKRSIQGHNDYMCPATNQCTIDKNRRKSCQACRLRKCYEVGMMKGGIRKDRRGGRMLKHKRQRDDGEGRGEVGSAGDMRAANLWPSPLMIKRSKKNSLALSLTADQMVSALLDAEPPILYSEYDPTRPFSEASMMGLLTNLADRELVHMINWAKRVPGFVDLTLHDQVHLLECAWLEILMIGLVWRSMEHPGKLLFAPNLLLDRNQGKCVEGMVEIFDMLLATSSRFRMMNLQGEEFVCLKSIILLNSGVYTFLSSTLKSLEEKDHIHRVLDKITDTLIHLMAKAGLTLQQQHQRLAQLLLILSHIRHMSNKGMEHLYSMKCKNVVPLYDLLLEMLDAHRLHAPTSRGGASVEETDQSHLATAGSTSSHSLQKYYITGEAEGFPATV
To be noted: test for false positivity.

The next series concerns Glucocorticoid receptor. To be noted: ref Kolšek et al. 2014a, cited from earlier work.
The conditions of series [3]: ref Schebb et al. 2012, cited from earlier work.
For series [4], the target named is T3, GR (Homo sapiens, UniProt P04150).
T3 sequence (P04150 1-777): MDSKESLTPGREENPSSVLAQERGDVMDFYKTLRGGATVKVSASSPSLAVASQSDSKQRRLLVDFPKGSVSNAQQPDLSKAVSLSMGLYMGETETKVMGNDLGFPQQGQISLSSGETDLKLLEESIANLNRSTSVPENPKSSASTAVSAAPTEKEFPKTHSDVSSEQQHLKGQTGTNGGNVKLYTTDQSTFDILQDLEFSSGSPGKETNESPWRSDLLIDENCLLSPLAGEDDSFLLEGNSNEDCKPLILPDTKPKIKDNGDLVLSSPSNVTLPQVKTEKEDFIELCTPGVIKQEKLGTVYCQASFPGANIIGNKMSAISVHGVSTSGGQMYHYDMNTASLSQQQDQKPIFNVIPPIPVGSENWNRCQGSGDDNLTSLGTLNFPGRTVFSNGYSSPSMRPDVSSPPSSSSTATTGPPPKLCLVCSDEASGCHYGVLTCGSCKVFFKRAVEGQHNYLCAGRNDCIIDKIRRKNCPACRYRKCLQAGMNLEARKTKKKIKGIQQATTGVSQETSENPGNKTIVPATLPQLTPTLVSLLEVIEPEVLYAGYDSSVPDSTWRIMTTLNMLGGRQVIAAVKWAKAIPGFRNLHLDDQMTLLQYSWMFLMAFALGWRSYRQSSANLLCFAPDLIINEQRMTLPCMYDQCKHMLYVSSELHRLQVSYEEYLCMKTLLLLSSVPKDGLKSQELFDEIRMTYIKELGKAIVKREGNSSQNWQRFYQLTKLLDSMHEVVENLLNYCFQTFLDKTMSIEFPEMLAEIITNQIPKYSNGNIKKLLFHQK
Nature of the series: PolarScreen GR Competitor binding affinity assay. Also on record: purchased Invitrogen. Conditions: in words; tested up to 10 μM.

Series [5] concerns the target T3, GR. Nature of the series: MDA-kb2 GR reporter assay, antagonist setup (500 nM HC). Type of series: cell-based. Also on record: constitutively expressed high levels of functional GR and AR; host or cells: MDA-kb2.

“Also recorded” adds a separate entry of the source. Where only a bound is given, the exact number is not on record here.

For the compound `O=C(Nc1ccc(Cl)cc1)Nc1ccc(Cl)c(Cl)c1` [Triclocarban, 1-(4-Chlorophenyl)-3-(3,4-dichlorophenyl) urea], the “higher AR RTA than vehicle control” value on human (h)AR (1 μM, vs 0.1% DMSO) is reported as 40.4%. For the same compound, the “higher AR RTA over vehicle control” value at human (h)AR (2.5 μM, vs 0.1% DMSO) amounted to 30.3%. Further, at human (h)AR (AR-EcoScreen), the “AR agonist activity, call” value is reported as “Agonist” and the “concentration with AR agonist activity” value was in the range of 1 to 2.5 µM. In the series with TRα and TRβ [1], the “baseline TR-mediated transcriptional activity lower than vehicle control (agonist setup)” value is listed as > 50%. Moreover, the “lower TR RTA than spike-in control” value with TRα and TRβ [2] (1 μM, vs 0.1% DMSO with 0.25 nM T3) is recorded as 44.3%. Also, in the series with TRα and TRβ [2] (GH3.TRE-Luc), the “TR antagonist activity, call” value is reported as “Antagonist” and the “concentration with TR antagonist activity” value was determined as 1 µM. The “estrogenic effect in presence of ER antagonist 10 μM hydroxytamoxifen” value on human (h) ERα is “blocked all”. For the same compound, in the series on Glucocorticoid receptor (MDA-kb2 cells), the “effect on GR with HC” value is “Enhancer of HC activity in MDA-kb2 cells ([Kolšek et al. 2014a])”. In addition, the “concentration with enhanced HC activity on GR” value in the series with Glucocorticoid receptor was 2 µM. Besides, in series [3], the “time of plasma peak after exposure” value was ≤ 48 h. Also, the peak plasma concentration in series [3] (six healthy volunteers, triclocarban-containing soaps) is 23 to 530 nM. Besides, the “binding affinity assay on isolated GR, result” value at GR [4] is on record as “did not show binding; also recorded: negative”. Further, the “lower GR RTA than spike-in control” value on GR [5] (5 μM, vs 0.1% DMSO with 500 nM HC) turned out to be 38.9%. Further, at GR [5] (MDA-kb2), the “GR antagonist activity, call” value is given as “Antagonist” and the “concentration with GR antagonist activity” value came to 5 µM.
